{"source": "paper PMC4459106", "about": "(Scientific Reports, 2015)", "key": {"ERK2": {"tested_on": "ERK2", "conditions": "cited from earlier work", "source_text": "While the biological relevance of this finding is debatable, care should be taken while analyzing in vitro data from studies that employ F-site and D-site containing ligands simultaneously."}, "[1]": {"target": "T1, ppERK2 (D-recruitment site, DRS) (Rattus norvegicus, UniProt P63086)", "T1 construct": "made in house", "T1 sequence (P63086 whole entry)": "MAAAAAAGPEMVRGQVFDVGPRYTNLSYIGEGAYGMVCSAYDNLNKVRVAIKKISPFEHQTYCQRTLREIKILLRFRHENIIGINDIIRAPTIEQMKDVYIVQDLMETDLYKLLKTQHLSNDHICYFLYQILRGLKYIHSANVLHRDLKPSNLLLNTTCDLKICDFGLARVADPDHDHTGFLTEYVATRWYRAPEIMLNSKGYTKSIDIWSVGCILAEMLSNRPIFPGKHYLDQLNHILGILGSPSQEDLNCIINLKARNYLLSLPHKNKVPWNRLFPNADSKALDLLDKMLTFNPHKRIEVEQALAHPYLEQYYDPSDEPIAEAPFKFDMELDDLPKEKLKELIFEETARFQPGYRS", "test": "NMR 15N,1H TROSY titration of ppERK2 with peptide ligand (CSPs; DRS affinity by two-site fit)", "assay_type": "binding, rat (rat ERK2 numbering used throughout)", "conditions": "130 μM ppERK2, 50 mM HEPES pH 6.8, KIM15-31 up to 992.0 μM", "description": "Spectral perturbations on ppERK2 were assessed from ^15N, ^1H TROSY experiments at 600 MHz and 25.0 °C using 1024 and 128 complex points and sweep-widths of 15 and 33 ppm in the ^1H and ^15N dimensions, respectively. […] A 130 μM sample of ppERK2 in a buffer containing 50 mM HEPES pH 6.8, 150 mM NaCl, 200 μM EDTA and 2 mM DTT was titrated with the following amounts of KIM15-31: 49.2, 99,8, 149.0, 296.2, 450.6, 992.0 μM."}, "ppERK2": {"target": "T2, ppERK2 (Rattus norvegicus, UniProt P63086)", "T2 construct": "made in house", "T2 sequence (P63086 whole entry)": "as above", "test": "Fluorescence-based kinase assay, phosphorylation of ERK-sensor-D1 by ppERK2", "assay_type": "biochemical, rat (rat ERK2 numbering used throughout)", "conditions": "for Km: 2 nM ppERK2, 25 mM HEPES pH 7.5, 10 mM MgCl2, 28 °C, fluorescence 360/492 nm; for Vmax: 2 nM ppERK2, 25 mM HEPES pH 7.5, 28 °C", "description": "The ERK-sensor-D1 peptide[57] […] The reaction was initiated after 1 hour of pre-incubation at room temperature by adding 10 μL of 5 mM Mg^2+/ATP to 90 μL of assay mixture and the fluorescence intensity was recorded at each time point for a total of 6 minutes on a Fluorolog fluorimeter (Horiba Jobin Yvon) in quartz cuvettes (Starna Cells) with a 10 mm path length and a reaction volume of 100 μL. The sample was excited at 360 nm and fluorescence was monitored at 492 nm using excitation and emission slit widths of 3 nm. The change in fluorescence was related to the progression of the reaction using a previously determined conversion factor[58]."}}}
{"substance": "Ets-1: transcription factor possessing neither a canonical D-site nor F-site", "values": [{"measurement": "binding to ERK2", "setting": "ERK2", "result": "efficiently bind ERK2"}]}
{"substance": "KIM15-31: DRS specific ligand (TLSLGAAMTQPPPEKTP; UniProt P35236 15-31, looked up, fragment)", "values": [{"measurement": "CSPs on titration of ppERK2 with KIM15-31", "setting": "[1]", "result": "the only significant CSPs are seen at the DRS and no significant long-range perturbations including at the FRS, are noted"}]}
{"substance": "PEA-15: anti-apoptotic small adaptor protein without canonical D-site or F-site sequences", "values": [{"measurement": "binding to ERK2", "setting": "ERK2", "result": "efficiently bind ERK2"}]}
{"substance": "QRKTLQRRNLKGLNLNL-X3-TGPLSPC-Sox-PF [ERK-sensor-D1]", "values": [{"measurement": "Km", "setting": "ppERK2; absence of Elk387-399", "result": "10.1 ± 0.8", "unit": "µM"}, {"measurement": "Vmax", "setting": "ppERK2; absence of Elk387-399", "result": "21.4 ± 0.5", "unit": "nM phosphate/second"}, {"measurement": "Km", "setting": "ppERK2; presence of 100 μM Elk387-399", "result": "22.7 ± 2.8", "unit": "µM"}, {"measurement": "Vmax", "setting": "ppERK2; presence of 100 μM Elk387-399", "result": "23.4 ± 1.1", "unit": "nM phosphate/second"}]}
{"substance": "c-Fos: F-site containing c-Fos", "values": [{"measurement": "increase in apparent KD of interaction with ppERK2 on DRS mutation", "setting": "ERK2; F-site containing c-Fos, DRS-mutant vs native ERK2", "result": "2-3 -fold"}]}
